Results on 86 compounds are retold here after a melting point compilation (Tetko et al.; mined from patent text by program, amines drawn as free bases though some values may be those of a salt).

Where only a bound is given, the exact number is not on record here.

On to `CNc1nc(-c2cccc(C#Cc3cccnc3)c2)c2cc(OC)c(OC)cc2n1`, for which the melting point is 103 to 105 °C.
As for `CCCCN1C(=O)CC(=O)NC1=O`, the melting point was in the range of 107 to 108 °C.
For the compound `Cc1cc(C)cc(S(=O)(=O)n2c(CCC(=O)O)cc3nc(C(F)(F)F)ccc32)c1`, the melting point was 185 to 189 °C.
On to `COC(=O)c1sc2ccccc2c1CBr`, for which the melting point fell in the range of 101 to 102 °C.
The figure for `CC1CC2C3CCC4=CC(=O)C=CC4(C)C3(F)C(O)CC2(C)C1(O)C(=O)COC(=O)OCc1ccccc1[N+](=O)[O-]` (stereo unspecified) is 203 to 204 °C; for `CCCn1c(=O)c2c(nc(C=O)n2C)n(CCC)c1=O` it is 130 °C.
`CCOC(=O)c1cc(=O)c(O)c(-c2ccc(OC)cc2)o1` returned a melting point of 163 to 164 °C.
Turning to `FC(F)(F)c1nc2cnc3ccccc3c2[nH]1`, the melting point was in the range of 252 to 254 °C.
In turn, `COc1ccc(C(CCC(C)=O)C(=O)c2ccc(OCc3ccccc3)cc2)cc1` (stereo unspecified) showed a melting point of 93 to 94 °C.
As for `COc1cc(C(=O)c2[nH]c3ccccc3c2C)cc([N+](=O)[O-])c1O`, the figure is 195 to 197 °C; as for `NC(=O)c1cc(-c2ncc(C(F)(F)F)cc2Cl)ccc1Cl`, 167 to 168 °C.
The figure for `O=c1c2c(F)cccc2nc2sccn12` is 205 to 207 °C; for `CSC1=Nc2ccccc2C2=NCC(CC3CNCCC34CCCCC4)N12` (stereo unspecified) it is 114 to 115 °C; for `CCc1nc2c(N)nc3cc(/C=C/C(=O)OC)ccc3c2n1CC(C)(C)O` it is 238 to 240 °C.
`COc1ccc(S(=O)(=O)N2CCc3cccc(-c4ccco4)c32)cc1` displayed a melting point of 177 to 178 °C.
On to `COC(=O)CCC#Cc1cc(F)cc([N+](=O)[O-])c1`, for which the melting point is 111 to 112 °C.
Compound `Cc1cccc(C)c1NC(=O)N=C1N(C)CC(=O)N1C` returned a melting point of 116 to 118 °C.
As for `CCCOc1cc(OCCCc2cn(-c3ccc(C(F)(F)F)cn3)nc2OCC)ccc1CCC(=O)O`, the figure is 126 to 127 °C.
As for `OC[C@@H]1OC[C@H](n2c(NC3CC3)nc3cc(Cl)c(Cl)cc32)[C@@H](O)[C@H]1O`, the figure is 164 °C; as for `CS(=O)(=O)C(=C1CN(C(c2ccccc2)c2ccccc2)C1)c1cc(Cl)ccc1Cl`, 202 °C.
The figure for `CC1(C)CCC(C)(C)c2cc(-c3cc(-c4ccc(C(=O)O)cc4)ccc3OCCN3CCOCC3)ccc21` is 270 to 272 °C; for `CC(=O)NNc1ccnc2c(NC(=O)c3c(Cl)cccc3Cl)cc(C(F)(F)F)cc12` it is 174 to 178 °C.
For the compound `c1ccc2c(c1)CC(Nc1ncnc3nc[nH]c13)C2`, the melting point is 300 °C.
The figure for `Cc1cccc(-c2ccc(=O)[nH]n2)c1` is 202 to 205 °C; for `CS(=O)(=O)Nc1cc([C@@H](O)CNC2CCN(c3ccc(S(=O)(=O)N(CC(=O)O)CC(=O)O)cc3)CC2)ccc1O` it is 163 to 166 °C; for `CCCCOc1nc(N)c2nc(OC)n(CCS(=O)(=O)c3cccc(CC(=O)OC)c3)c2n1` it is 246 to 247 °C.
As for `Cc1ccc(S(=O)(=O)NC(C)C(=O)Cl)cc1` (stereo unspecified), the figure is 101 to 102 °C.
The figure for `CCC(CC)N1CCC(CNc2ccc(Cl)cc2C(=O)Nc2ccc(C)cn2)CC1` is 122 to 124 °C; for `N#Cc1cc(C(=O)NNC(=O)c2occc2-c2ccccc2OCC2CCCCC2)ccc1O` it is 142 to 143 °C.
As to `O=CCCNC(=O)CN1CCN(CC(=O)O)CCN(CC(=O)O)CCN(CC(=O)O)CC1`, the melting point is 115 to 120 °C.
The figure for `Cc1nccn1-c1nc(-c2ccc(C(F)(F)F)cc2)c(CCCO)o1` is 127 to 129 °C; for `CN(C)CCCOc1ccccc1C=C1CCc2ccccc2C1=O` it is 67 to 69 °C; for `CC(C)c1cccc(C(C)C)c1NC(=O)N(Cc1ccc(O)cc1)CC1(c2cccc(N(C)C)c2)CCCCC1` it is 166 to 168 °C.
As for `CC(C)C(=O)NCCCn1c(CCO)nc2c(N)nc3ccccc3c21`, the figure is 196 to 198 °C.
Compound `O=C(NCc1ccccc1)c1csc(-n2ccc(OCc3ccccc3)cc2=O)c1` yielded a melting point of 162 to 163 °C.
Regarding `Cc1ccccc1OCC1CO1` (stereo unspecified), the melting point lay in the range of 114 to 116 °C.
For `CCNc1nc2ccccc2s1`, the melting point is 93 °C.
Regarding `Brc1nc(-c2ccccc2)nc2ccccc12`, the melting point turned out to be 132 °C.
The figure for `FC(F)(F)c1ccc(-c2cc(Oc3ccc4c(C(F)(F)F)ccnc4c3)ncn2)cc1` is 129 to 131 °C; for `O=C(O)c1ccc(F)c(F)c1Nc1ccc(I)cc1F` it is 199 to 201 °C; for `CCN(CC)C(=O)Nc1ccc2c(c1)C(c1ccccc1F)=NCC(=O)N2C` it is 138 to 139 °C.
For `CCCCc1nn(-c2ccccc2C(F)(F)F)c(=O)n1Cc1ccc(-c2ccccc2S(=O)(=O)NC(=O)C2CC2)cc1`, the melting point was 187 to 189 °C.
The figure for `CC1=CC(O)C(OC(=O)C=Cc2ccccc2)C(C)(C)CC1=O` (stereo unspecified) is 85.5 to 87 °C; for `CCCN1NC(c2ccc(Cl)cc2)C2=C1C(=Cc1ccc(Cl)cc1)CSC2` (stereo unspecified) it is 192 to 194 °C.
As to `COc1ccc(CN2C(=O)[C@@H](NC(=O)Cc3ccccc3)[C@H]2CI)c(OC)c1` (relative stereo), the melting point is 181 to 182 °C.
The figure for `O=C(c1cccc(Cl)c1)c1sc2cc(O)ccc2c1-c1ccccc1` is 215 °C.
As for `Cc1cc(-c2ncn(Cc3ccc(F)cc3)n2)sc1C(=O)NCc1ccccc1`, the figure is 128 to 130 °C; as for `CNC(=O)Cc1cccc(C(=O)c2ccccc2)c1N`, 145 to 146 °C.
The figure for `CC(C)(C)NC(=O)N1CCn2cc(-c3ccccc3)c(C(N)=O)c2C1` is 156 to 158 °C; for `Cc1nn(-c2c(Cl)cc(C(F)(F)F)cc2Cl)nc1CBr` it is 98 to 100 °C.
Consider `CC(C)(C)OC(=O)CN1CCN[C@@H](Cc2ccc(OC(C)(C)C)cc2)C1=O`, for which the melting point lay in the range of 124 to 126 °C.
`Cc1cnc(NCCCNc2ncc(Cc3ccc(C)nc3)c(=O)[nH]2)c(C)c1` yielded a melting point of 104 to 105 °C.
The figure for `CC(C)(C)c1ccc(CC2CCN(C(=O)C(=O)Nc3ccc4[nH]c(=O)oc4c3)CC2)cc1` is 168 °C; for `Cc1cccc(C(=O)O)c1OC(=O)C=Cc1ccccc1` it is 141 to 142 °C; for `O=C1CCCC(S(=O)(=O)c2ccccc2)C1` (stereo unspecified) it is 83 to 85 °C.
The figure for `Cc1cc(N)ccc1N1CCC(N2CCOCC2)CC1` is 199 to 200 °C; for `CCc1c(C)nc(SCc2cc(C)ccn2)[nH]c1=O` it is 130 to 132 °C.
As for `N#Cc1cnn(-c2nc(F)c(C(F)(F)F)cc2Cl)c1N`, the figure is 156 to 159 °C; as for `CS(=O)(=O)c1cccc(NC(=O)c2cnn3c(C(F)F)cc(-c4ccc(Cl)c(Cl)c4)nc23)c1`, 262 °C.
As for `CCCCOc1ccc(CCCCCCCCC(=O)NO)cc1`, the melting point lay within 99 to 101 °C.
With `O=C1C(=O)c2ccccc2C2=C1SCC1(CCN(Cc3ccc(F)cc3F)CC1)O2`, the melting point was 104 to 107 °C.
As for `COC(=O)c1cc2nc(C)n(C)c2cc1C(=O)OC`, the figure is 147 to 148 °C.
`COC(=O)c1ccc(-c2nc(C(N)=O)c3[nH]c(=O)n(-c4ccccc4OC)c3n2)cc1` came in with a melting point of 286 to 290 °C.
Regarding `O=C1CC(=O)N(c2ccc(Cl)cc2)N1`, the melting point was 189 to 193 °C.
Regarding `COc1ccc(C(C#N)Cc2c(Cl)cncc2Cl)c2c1OC(C)(C)C2` (stereo unspecified), the melting point was 158 to 162 °C.
As for `CCOC(=O)CCCCC(NS(=O)(=O)c1ccc(F)cc1)c1ccc2ccccc2c1` (stereo unspecified), the figure is 91 to 93 °C; as for `COc1ccc(N2CCN(c3c(C)c(C)c4c(c3C)C(O)(c3ccc(C(F)(F)F)cc3)C(C)(C)O4)CC2)cc1` (stereo unspecified), 181 to 183 °C; as for `O=Cc1ccn(C2=CC3=C(CC2)CCc2[nH]c(=O)c(=O)n(CC(=O)O)c23)c1`, > 250 °C.
As to `N#Cc1cc(-c2ncccc2C(=O)O)ccc1OCCc1ccccc1Cl`, the melting point was 187 to 188 °C.
As for `CCOC(=O)C(F)(F)c1ccc(NC(=O)c2ccc3c(c2)C(C)(C)CCC3(C)C)cc1`, the figure is 183 °C; as for `Cc1c2c(c3ccccc3c1NC(=O)CC(C)(C)C)OCC2c1ccc(C(C)C)cc1` (stereo unspecified), 183 to 184 °C.
Consider `CC(=O)OCC1(C)OCC2(CO1)COC(C)(COC(C)=O)OC2` (stereo unspecified), for which the melting point was 66 to 67 °C.
Compound `CC(C)CC(CP(=O)(O)CNCCc1ccccc1)C(=O)N(c1ccc(-c2ccccc2)cc1)[C@@H](C)C(=O)O` (stereo partly specified) gave a melting point of 229 to 230 °C.
`Fc1ccc2c(c1)CC(n1cc[nH]c1=S)CC2` (stereo unspecified) displayed a melting point of 215 to 217 °C.
In the case of `CCOC(=O)CCc1cc(C(=O)CCCC(=O)O)ccc1OC`, the melting point is 124 to 126 °C.
Consider `Cc1c(N2CC[C@@H](C3(NC(=O)OC(C)(C)C)CC3)C2)cc(O)c2c(=O)c(C(=O)O)cn([C@@H]3C[C@@H]3F)c12`, for which the melting point lay in the range of 203 to 206 °C.
In turn, `CC1C(=O)N(c2ccc([N+](=O)[O-])cc2)C(=S)N1c1ccc(Cc2ccccc2)cc1` (stereo unspecified) gave a melting point of 200 °C.
As for `CN(O)C(=O)Nc1c(C(=O)c2ccccc2)[nH]c2cc(Cl)ccc12`, the melting point is 208 to 214 °C.
As for `O=S(=O)(c1ccccc1)N(CCCN1CC=C(c2ccccc2)CC1)c1ccccc1`, the figure is 112 °C; as for `C=CCNc1cc(Cl)nnc1NN`, 184 to 186 °C.
The figure for `COC(=O)c1oc(C(C)(C)C)cc1NC(=O)Nc1ccc(F)cc1` is 81 to 82 °C; for `Cc1cc(C(C)(C)C)cc(C)c1S(F)(F)F` it is 59.1 °C; for `CC(C)(CC(O)(Cn1ccc2c1CCCC2=O)C(F)(F)F)c1cccc2c1OCC2` (stereo unspecified) it is 145 to 146 °C.
`CN1C(=O)CC[C@]2(C)c3ccc(Oc4ccc5ccccc5n4)cc3CC[C@@H]12` yielded a melting point of 172 to 174 °C.
As for `CSc1ccc(Oc2cccc(C=O)n2)cc1`, the melting point is 60 to 63 °C.
As for `C=Cc1ccc(CN2CCNCCN(Cc3ccc(C=C)cc3)CC2)cc1`, the figure is 162 to 164 °C.

A word on the melting point: it is the temperature, or range, at which the solid turns liquid.
